Measured values reported in PubChem BioAssay (NCI).
Several values for one entry are separate records, joined by “and”; a condition that tells them apart may be missing. Equal entries are not always repeated.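 96-well plates; 48 h exposure; 5 concentrations. Endpoints by linear interpolation between flanking doses. Not reached: highest tested concentration assigned. GI50: concentration for 50% inhibition of growth. TGI: concentration producing complete growth inhibition.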 Where a SMILES comes first, the peptide text is derived from it. [ ]: non-standard residue; d: D form. Ava = NCCCCC(=O)O; Mpa = O=C(O)CCS

Assays:
Test in all cases: NCI-60 cell line screen, 48 h
[1] = system: OVCAR-8 ovarian
[2] = system: K-562 leukemia
[3] = system: HCT-15 colon
[4] = system: HOP-92 NSCLC
[5] = system: OVCAR-5 ovarian
[6] = system: SK-OV-3 ovarian
[7] = system: RXF 393 renal
[8] = system: MOLT-4 leukemia
[9] = system: M14 melanoma
[10] = system: MDA-MB-435
[11] = system: CAKI-1 renal

SMILES | TGI [1] | TGI [2] | TGI [3] | TGI [4] | TGI [5] | TGI [6] | TGI [7] | TGI [8] | TGI [9] | TGI [10] | TGI [11] | GI50 [1] | GI50 [2] | GI50 [3] | GI50 [4] | GI50 [5] | GI50 [6] | GI50 [7] | GI50 [8] | GI50 [11]
CC(C)(C)OC(=O)NC(CSCc1ccc(C(=O)c2ccccc2)cc1)C(=O)N1CCN(CCCCN2c3ccccc3Sc3cc(N=[N+]=[N-])ccc32)CC1 (centres undefined) | > 100 µM | > 100 µM | > 100 µM | > 100 µM | > 100 µM | > 100 µM | > 100 µM | > 100 µM | > 100 µM | > 100 µM | > 100 µM | – | – | – | – | – | – | – | – | –
CCC1c2[nH]c3ccccc3c2C[C@H]2C(=O)NC(C)C(=O)N12 (some centres undefined) | > 100 µM | > 100 µM | > 100 µM | > 100 µM | > 100 µM | > 100 µM | > 100 µM | > 100 µM | > 100 µM | > 100 µM | > 100 µM | – | – | – | – | – | – | – | – | –
N=C1OC(CN2CCN(c3ccccc3)CC2)CN1C(=O)Nc1ccccc1 (centres undefined) | > 100 µM | > 100 µM | > 100 µM | > 100 µM | > 100 µM | > 100 µM | > 100 µM | > 100 µM | > 100 µM | > 100 µM | > 100 µM | – | – | – | – | – | – | – | – | –
CCCC(=O)OCC1OC(n2cc(F)c(=O)[nH]c2=O)CC1OC(=O)CCC (centres undefined) | > 10 µM | > 10 µM | > 10 µM | > 10 µM | > 10 µM | > 10 µM | > 10 µM | > 10 µM | > 10 µM | > 10 µM | > 7.85 µM | – | – | – | – | – | – | – | – | –
CS(=O)(=O)OCCN(CCOS(C)(=O)=O)c1ccc(C=Nc2ccc(-c3csc(Cc4ccccc4)n3)cc2)c(Cl)c1 | > 66 µM | 76.9 µM | > 87.8 µM | 46.5 µM | 99.1 µM | > 77.7 µM | 98.6 µM | > 87.9 µM | > 62.7 µM | > 78.2 µM | 13.5 µM | – | – | – | – | – | – | – | – | –
O=C(CC(C(=O)c1ccsc1)c1cccs1)c1ccccc1 (centres undefined) | > 100 µM | > 100 µM | > 100 µM | > 100 µM | > 100 µM | > 100 µM | > 100 µM | > 100 µM | > 100 µM | > 100 µM | > 100 µM | – | – | – | – | – | – | – | – | –
Nc1cc(C2CCCc3c2[nH]c2ccccc32)ccc1O (centres undefined) | > 100 µM | > 100 µM | > 100 µM | > 100 µM | > 100 µM | > 100 µM | > 100 µM | 91.2 µM | > 100 µM | 33.2 µM | 84.5 µM | – | – | – | – | – | – | – | – | –
O=C(N/N=C\c1ccc(Cl)cc1)Nc1ccc2ccccc2c1 | 73.2 µM | > 100 µM | > 100 µM | 77.7 µM | > 100 µM | > 100 µM | > 100 µM | > 100 µM | > 100 µM | > 100 µM | > 100 µM | – | – | – | – | – | – | – | – | –
O=S1(=O)OCCOS(=O)(=O)C1(F)Cc1ccccc1 | > 100 µM | > 100 µM | > 100 µM | > 100 µM | > 100 µM | > 100 µM | > 100 µM | > 100 µM | > 100 µM | > 100 µM | > 100 µM | – | – | – | – | – | – | – | – | –
CCC1(O)C(=O)OCc2c1cc1n(c2=O)Cc2cc3cc4c(cc3nc2-1)OCO4 (centres undefined) | 1.29 µM | > 100 µM | 19 µM | 0.6 µM | 0.693 µM | 1.81 µM | 0.0578 µM | 0.178 µM | 0.0632 µM | 9.1 µM | 0.046 µM | – | – | – | – | – | – | – | – | –
N=c1oc2ccc3ccccc3c2cc1-c1nc2ccccc2c(=O)[nH]1 | > 100 µM | > 100 µM | > 100 µM | 41.9 µM | > 100 µM | > 100 µM | 56.7 µM | > 100 µM | > 100 µM | > 100 µM | > 100 µM | – | – | – | – | – | – | – | – | –
COc1cc2ncnc(NS(=O)(=O)c3cc4ccccc4s3)c2cc1OC | > 100 µM | > 100 µM | > 100 µM | > 100 µM | > 100 µM | > 100 µM | > 100 µM | > 100 µM | > 100 µM | > 100 µM | > 100 µM | – | – | – | – | – | – | – | – | –
Nc1cc(OCC2CCCCC2)nc(N)n1 | > 100 µM | > 100 µM | > 100 µM | > 100 µM | > 100 µM | > 100 µM | > 100 µM | > 100 µM | > 100 µM | > 100 µM | > 100 µM | – | – | – | – | – | – | – | – | –
Cc1cc2ncn(CC(=O)O)c2cc1C | > 100 µM | > 100 µM | > 100 µM | > 100 µM | > 100 µM | > 100 µM | > 100 µM | > 100 µM | > 100 µM | > 100 µM | > 100 µM | – | – | – | – | – | – | – | – | –
Cc1ccc([N+](=O)[O-])cc1S(=O)(=O)Nc1ccc(C2=NN(S(=O)(=O)c3cc([N+](=O)[O-])ccc3C)C(c3cccs3)C2)cc1 (centres undefined) | > 100 µM | 88.3 µM | > 100 µM | > 100 µM | > 100 µM | > 100 µM | > 100 µM | 89.3 µM | > 100 µM | > 100 µM | > 100 µM | – | – | – | – | – | – | – | – | –
CC1=C(C)C(=O)OC(C(C)(O)C2(O)CC3OC34C3CC(O)C56OC5C=CC(=O)C6(C)C3CCC42C)C1 (centres undefined) | 6.67 µM | > 100 µM | 3.85 µM | 12 µM | 10.4 µM | 14.2 µM | 6.68 µM | 4.49 µM | 12.6 µM | 4.62 µM | 14.4 µM | – | – | – | – | – | – | – | – | –
CC(C)CC1c2[nH]c3ccccc3c2C[C@H]2C(=O)NC(Cc3c[nH]c4ccccc34)C(=O)N12 (some centres undefined) | 39 µM | 61.5 µM | 47.2 µM | 34.5 µM | 48 µM | 49 µM | 22.5 µM | 39.1 µM | 29 µM | 34.4 µM | 66.1 µM | – | – | – | – | – | – | – | – | –
CCO/N=C\c1ccc2oc(-c3ccccc3)cc(=O)c2c1 | 12.5 µM | > 100 µM | 12.4 µM | 31.5 µM | 40 µM | 24 µM | 11.6 µM | 19.9 µM | > 31.6 µM | 2.49 µM | 41.7 µM | – | – | – | – | – | – | – | – | –
CC(NC(=O)CCS)C(=O)NC(C)C(=O)NC(Cc1c[nH]c2ccccc12)C(=O)NC(Cc1c[nH]cn1)C(=O)NC(CO)C(=O)NC(Cc1c[nH]c2ccccc12)C(=O)NCCCCC(=O)NC(C)C(=O)NC(CCC(N)=O)C(=O)NC(CCCCN)C(=O)NC(C)C(=O)NC(CCCNC(=N)N)C(=O)NC(CCCCN)C(N)=O (centres undefined) ([Mpa]AAWHSW[Ava]AQKARK-NH2; configuration not given here) | > 100 µM | 99.4 µM | > 100 µM | > 100 µM | > 100 µM | > 100 µM | > 100 µM | > 100 µM | > 100 µM | > 100 µM | > 100 µM | – | – | – | – | – | – | – | – | –
COc1ccc2[nH]c3ccc4cc[n+](CCN5CCC(C6CCN(CC[n+]7ccc8ccc9[nH]c%10ccc(OC)cc%10c9c8c7)CC6)CC5)cc4c3c2c1 | 50 µM and > 100 µM | 1.41 µM and 7.67 µM | – | 28.1 µM and 5.47 µM | 50 µM and > 91.1 µM | 45.8 µM and 20.6 µM | 50 µM and 10.8 µM | 50 µM and > 100 µM | > 50 µM | > 50 µM | 50 µM and 68.1 µM | 8.28 µM | 0.164 µM | 0.266 µM | 27.7 µM | 39.2 µM | 33.2 µM | 38.1 µM | 0.209 µM | 10.9 µM
COC(=O)[C@@]12CSC[C@]1(C(=O)OC)N[C@@H](c1ccccc1O)C2 | > 100 µM | > 100 µM | > 100 µM | > 100 µM | > 100 µM | > 100 µM | > 100 µM | > 100 µM | > 100 µM | > 100 µM | > 100 µM | – | – | – | – | – | – | – | – | –
CCN(CC)Cc1cc(N=Nc2c(O)ccc3c(N=Nc4ccc(O)c(CN(CC)CC)c4)c(O)ccc23)ccc1O | 5.27 µM | > 36.3 µM | 4.7 µM | 22.8 µM | > 44.9 µM | 6.85 µM | > 23.1 µM | 12.1 µM | > 38.5 µM | 20.8 µM | 8.25 µM | – | – | – | – | – | – | – | – | –
Cc1ccc(C(=O)Nc2ccc(S(=O)(=O)O)c3cc(S(=O)(=O)O)cc(S(=O)(=O)O)c23)cc1NC(=O)c1cccc(NC(=O)Nc2cccc(C(=O)Nc3cc(C(=O)Nc4ccc(S(=O)(=O)O)c5cc(S(=O)(=O)O)cc(S(=O)(=O)O)c45)ccc3C)c2)c1 | > 100 µM | > 100 µM | > 100 µM | > 100 µM | > 100 µM | > 100 µM | > 100 µM | > 100 µM | > 100 µM | > 100 µM | > 100 µM | – | – | – | – | – | – | – | – | –
O=C1/C(=C/c2cccc([N+](=O)[O-])c2)N=C(c2ccccc2)N1c1nc2ccc(Sc3ccccc3)cc2[nH]1 | > 100 µM | > 100 µM | > 100 µM | > 100 µM | > 100 µM | > 100 µM | > 100 µM | > 100 µM | > 100 µM | 37 µM | > 100 µM | – | – | – | – | – | – | – | – | –
COc1cc(/C=C2\C(=O)N(c3cccc(NC(C)=O)c3)C(c3ccccc3)S2(=O)=O)cc(OC)c1OC (centres undefined) | > 100 µM | > 100 µM | > 100 µM | > 100 µM | > 100 µM | > 100 µM | > 100 µM | 86.3 µM | > 100 µM | > 100 µM | > 100 µM | – | – | – | – | – | – | – | – | –
Cc1cn(S(=O)(=O)c2ccccc2)c2c(OCc3ccccc3)cc([N+](=O)[O-])cc12 | > 100 µM | > 100 µM | > 100 µM | > 100 µM | > 100 µM | > 100 µM | > 100 µM | > 100 µM | > 100 µM | > 100 µM | > 100 µM | – | – | – | – | – | – | – | – | –
